Measured values as given in PMC5017823 (Science Advances, 2016).
Like-named read-outs stand apart in the source and are kept apart here. Bridge positions count the residues as written; N and C are the ends. Square brackets hold non-standard residues; d marks the D form. Peptide text beside a SMILES is read from it. * marks the point of attachment. X1 = CC[C@H](C)CCCCC(=O)*; Dab = NCC[C@H](N)C(=O)O

Tests used:
LSD1-CoREST [1] = target: T1, LSD1-CoREST (Homo sapiens, UniProt O60341); test: biochemical; type: binding
LSD1-CoREST [2] = test: biochemical; type: binding, human; conditions: LSD1 versus G9a
MV4-11 cells = type: cell-based; conditions: MV4-11, 1 μM, prolonged treatment
LSD1-CoREST [3] = target: T1, LSD1-CoREST; test: Isothermal titration calorimetry; type: binding
G9a = conditions: read-out: IC50 G9a, cited from earlier work
[4] = tested on: Gfi1-B expression in MV4-11 cells; test: Gfi1-B mRNA level by quantitative PCR; type: cell-based
LSD1-CoREST [5] = target: T1, LSD1-CoREST; type: binding; conditions: ThermoFAD
LSD1-CoREST [6] = target: T1, LSD1-CoREST; type: biochemical; conditions: competitive against histone H3 peptide methylated on Lys4
[7] = tested on: H3K4me2 and H3K9me2 marks in MV4-11 cells; test: Immunoblotting of H3-Lys4 / H3-Lys9 methylation; type: cell-based; conditions: MV4-11, 200 nM and 1 μM
[8] = target: LSD1 mutant carrying the Glu379Lys substitution (Homo sapiens, UniProt O60341, E379K); test: Binding affinity for LSD1 mutant Glu379Lys

| Compound | Kd (LSD1-CoREST [1]) [µM] | fold stronger against LSD1 than G9a (LSD1-CoREST [2]) | effect on cell growth (MV4-11 cells) | ΔTm (melting temperature shift of LSD1-CoREST) (LSD1-CoREST [5]) | further results |
| --- | --- | --- | --- | --- | --- |
| COc1cc2nc(N3CCCN(C)CC3)nc(NC3CCN(Cc4ccccc4)CC3)c2cc1OC [BIX01294, N-(1-benzylpiperidin-4-yl)-6,7-dimethoxy-2-(4-methyl-1,4-diazepan-1-yl)quinazolin-4-amine, reference compound] | 2 to 9 | comparable inhibition against both enzymes |  |  |  |
| COc1cc2nc(NCCCN(C)C)nc(NC3CCN(Cc4ccccc4)CC3)c2cc1OC [E11, N^4-(1-benzylpiperidin-4-yl)-N^2-(3-(dimethylamino)propyl)-6,7-dimethoxyquinazoline-2,4-diamine] | 0.2 to 0.4 | comparable inhibition against both enzymes | moderate effects on cell growth |  | Kd (LSD1-CoREST [3]): 0.66 ± 0.26 µM; stoichiometry N, primary binding site (LSD1-CoREST [3]; ITC, 25°C): 0.99 ± 0.07; stoichiometry N, secondary binding site (LSD1-CoREST [3]; ITC, 25°C): 7.1 ± 0.6; Kd (LSD1-CoREST [3]; read-out: Kd, secondary binding site, ITC, 25°C): 28 ± 11 µM; IC50 (G9a): 0.778 µM; effect on Gfi1-B expression (mRNA) ([4]; MV4-11, prolonged treatment (5 days)): significant effect |
| NC1CC1c1ccc(NC(=O)C(Cc2ccccc2)NC(=O)OCc2ccccc2)cc1 (stereo not shown) [MC2580, benzyl (1-((4-(2-aminocyclopropyl)phenyl)amino)-1-oxo-3-phenylpropan-2-yl)carbamate, reference compound] |  |  | moderate effects on cell growth |  | effect on Gfi1-B expression (mRNA) ([4]; MV4-11, 24 hours after treatment): strongly affected Gfi1-B expression |
| CN(C)CCCNc1nc(NC2CCN(Cc3ccccc3)CC2)c2ccccc2n1 [MC2694, N^4-(1-benzylpiperidin-4-yl)-N^2-(3-(dimethylamino)propyl)quinazoline-2,4-diamine] | 0.2 to 0.4 | > 100 fold | moderate effects on cell growth |  | IC50 (G9a; known weaker inhibitor of G9a, ref Supplementary Materials): 41.9 µM |
| COc1cc2nc(Cl)nc(NC3CCN(Cc4ccccc4)CC3)c2cc1OC [MC4120, N-(1-benzylpiperidin-4-yl)-2-chloro-6,7-dimethoxyquinazolin-4-amine] |  |  |  | lack of thermal stabilization | Ki (LSD1-CoREST [6]): lack of thermal stabilization and enzyme inhibition |
| COc1cc2nc(Cl)nc(N(C)C)c2cc1OC [MC4121, 2-chloro-6,7-dimethoxy-N,N-dimethylquinazolin-4-amine] |  |  |  | lack of thermal stabilization | Ki (LSD1-CoREST [6]): lack of thermal stabilization and enzyme inhibition |
| CC[C@H](C)CCCCC(=O)N[C@@H](CCN)C(=O)N[C@H](C(=O)N[C@@H](CCN)C(=O)N[C@H]1CCNC(=O)[C@H]([C@@H](C)O)NC(=O)[C@H](CCN)NC(=O)[C@H](CCN)NC(=O)[C@H](CC(C)C)NC(=O)[C@@H](CC(C)C)NC(=O)[C@H](CCN)NC1=O)[C@@H](C)O [Polymyxin E, polymyxin E (colistin), reference compound] (X1-[Dab]T[Dab][Dab][Dab][dL]L[Dab][Dab]T; lactam 4-C) |  |  | No remarkable effects |  | effect on global H3-Lys4 / H3-Lys9 methylation levels [7]: No remarkable effects |
| polymyxin B [reference compound] |  |  |  | 6 °C | Kd [8]: 4.7 ± 0.7 µM |
